# What was measured:
# Type in all cases: cell-based, human
# GPIIb antigen (CD41) = assay: Unstimulated whole blood flow cytometry, GPIIb antigen; conditions: for GPIIb antigen (CD41), Mean Fluorescence Intensity: unstimulated, Mean ± SD
# Protocol: (§1) The methodology employed was conventional aggregation induced by 5 μM ADP, 1 μg/ml collagen, 10 μM TRAP, whole blood aggregation with 1 μg/ml collagen, Ultegra, and PFA-100 Analyzers, expression of 14 intact, and TRAP-stimulated major receptors by whole blood flow cytometry were utilized to assess platelet activity after preincubation with escalating concentrations of E5555 (20 ng/ml, 50 ng/ml, and 100 ng/ml). The experiments were performed in healthy volunteers, CAD patients treated with ASA, and CAD patients treated with ASA and clopidogrel combination (n=10, for each group).
# (§2) An Informed Consent was obtained from all volunteers. Drug users were excluded from data analysis. The study was approved by Quorum Institutional Review Board. All subjects underwent blood sampling after at least 30 minutes of rest and two or more hours of fasting. Blood (28 ml) was drawn between 8 and 10 a.m. in order to avoid any diurnal influence and sampled from an antecubital vein using a 21-gauge butterfly needle containing 3.2% sodium citrate (1:9 volume) after having discarded the first 1.5 ml of free running blood. Four Vacutainer tubes (7.0 ml) were collected for a total of 28 ml of whole blood-citrate mixture from each study participant. Chronologically, blood samples were delivered to the core laboratory facility within 45 minutes after drawing. Then all tubes of blood-citrate mixture were pooled. One portion of pooled blood (5 ml) was kept as an internal control and pretreated with the vehicle. The remaining blood (23 ml) was used for the in vitro exposure to E5555 at concentrations of 20 ng/ml, 50 ng/ml, and 100 ng/ml. […] The platelet aggregation studies, Rapid Analyzers measures, and flow cytometry preparations were initiated within no more than 110 minutes following the blood draw, incubation with the drug, and preparation of the samples.
# (§3) Formation of platelet-leukocyte aggregates was assessed by dual labeling with pan-platelet marker (CD151), and then with CD14, the macrophage receptor for endotoxin lipopolysaccharides (PharMingen, and Coulter, San Diego, Calif., USA). The tubes were then covered with aluminum foil and incubated at 37° C. for 40 minutes with gentle rotation. After incubation, samples were immediately analyzed on a Becton Dickinson FACScan flow cytometer. The instrument was set up to measure forward light scatter, and FITC fluorescence. All parameters were collected using four-decade logarithmic amplification. The data was retrieved in list mode files and then analyzed. P selectin was expressed as percent positive cells. Other antigens were expressed as log mean fluorescence intensity.
# PAC-1 (GPIIb/IIIa) = assay: Unstimulated whole blood flow cytometry, PAC-1; conditions: for PAC-1 (GPIIb/IIIa), Mean Fluorescence Intensity: unstimulated, Mean ± SD
# Protocol: as §1, §2, §3
# PMA (CD14 + CD151) = assay: Unstimulated whole blood flow cytometry, platelet-monocyte aggregates; conditions: for PMA (CD14 + CD151), Mean Fluorescence Intensity: unstimulated, Mean ± SD
# Protocol: as §1, §2, §3
# GP37 (CD165) = assay: Unstimulated whole blood flow cytometry, GP37; conditions: Mean ± SD
# Protocol: as §1, §2, §3
# [1] = test system: Thrombospondin-Receptor (CD36); assay: Unstimulated whole blood flow cytometry, thrombospondin receptor; conditions: for Thrombospondin-Receptor (CD36), Mean Fluorescence Intensity: unstimulated, E5555 20 ng/ml, Mean ± SD
# Protocol: as §1, §2, §3
# [2] = overall summary, stimulation not stated
# [3] = E5555 20 ng/ml, Patients (ASA + C)
# [4] = E5555 50 ng/ml, Patients (ASA + C)
# [5] = E5555 100 ng/ml, Patients (ASA + C)
# [6] = E5555 100 ng/ml, Patients (ASA)
smiles,measurement,setting,value
"Br.CCOc1cc2c(c(F)c1OCC)C(=N)N(CC(=O)c1cc(N3CCOCC3)c(OC)c(C(C)(C)C)c1)C2 [E5555, 1-(3-tert-butyl-4-methoxy-5-morpholinophenyl)-2-(5,6-diethoxy-7-fluoro-1-imino-1,3-dihydro-2H-isoindol-2-yl)ethanone hydrobromide]","GP IIb/IIIa antigen expression, effect in words",GPIIb antigen (CD41); [2],significant reduction
same,"GPIIb antigen (CD41), Mean Fluorescence Intensity",GPIIb antigen (CD41); [3],219 ± 25 MFI
same,"GPIIb antigen (CD41), Mean Fluorescence Intensity","GPIIb antigen (CD41); E5555 20 ng/ml, Patients (ASA)",391 ± 44 MFI
same,"GPIIb antigen (CD41), Mean Fluorescence Intensity","GPIIb antigen (CD41); E5555 20 ng/ml, Volunteers",423 ± 27 MFI
same,"GPIIb antigen (CD41), Mean Fluorescence Intensity",GPIIb antigen (CD41); [4],240 ± 32 MFI
same,"GPIIb antigen (CD41), Mean Fluorescence Intensity","GPIIb antigen (CD41); E5555 50 ng/ml, Patients (ASA)",404 ± 31 MFI
same,"GPIIb antigen (CD41), Mean Fluorescence Intensity","GPIIb antigen (CD41); E5555 50 ng/ml, Volunteers",409 ± 25 MFI
same,"GPIIb antigen (CD41), Mean Fluorescence Intensity",GPIIb antigen (CD41); [5],233 ± 30 MFI
same,"GPIIb antigen (CD41), Mean Fluorescence Intensity",GPIIb antigen (CD41); [6],396 ± 42 MFI
same,"GPIIb antigen (CD41), Mean Fluorescence Intensity","GPIIb antigen (CD41); E5555 100 ng/ml, Volunteers",416 ± 24 MFI
same,"GP IIb/IIIa activity with PAC-1, effect in words",PAC-1 (GPIIb/IIIa); [2],significant reduction
same,"PAC-1 (GPIIb/IIIa), Mean Fluorescence Intensity",PAC-1 (GPIIb/IIIa); [3],5.9 ± 0.8 MFI
same,"PAC-1 (GPIIb/IIIa), Mean Fluorescence Intensity","PAC-1 (GPIIb/IIIa); E5555 20 ng/ml, Patients (ASA)",10.4 ± 1.2 MFI
same,"PAC-1 (GPIIb/IIIa), Mean Fluorescence Intensity","PAC-1 (GPIIb/IIIa); E5555 20 ng/ml, Volunteers",10.7 ± 1.3 MFI
same,"PAC-1 (GPIIb/IIIa), Mean Fluorescence Intensity",PAC-1 (GPIIb/IIIa); [4],6.2 ± 1.0 MFI
same,"PAC-1 (GPIIb/IIIa), Mean Fluorescence Intensity","PAC-1 (GPIIb/IIIa); E5555 50 ng/ml, Patients (ASA)",10.1 ± 2.0 MFI
same,"PAC-1 (GPIIb/IIIa), Mean Fluorescence Intensity","PAC-1 (GPIIb/IIIa); E5555 50 ng/ml, Volunteers",9.2 ± 1.5 MFI
same,"PAC-1 (GPIIb/IIIa), Mean Fluorescence Intensity",PAC-1 (GPIIb/IIIa); [5],6.3 ± 0.7 MFI
same,"PAC-1 (GPIIb/IIIa), Mean Fluorescence Intensity",PAC-1 (GPIIb/IIIa); [6],11.7 ± 2.1 MFI
same,"PAC-1 (GPIIb/IIIa), Mean Fluorescence Intensity","PAC-1 (GPIIb/IIIa); E5555 100 ng/ml, Volunteers",9.9 ± 2.0 MFI
same,"Formation of platelet-monocyte aggregates, effect in words",PMA (CD14 + CD151); [2],significantly reduced
same,"PMA (CD14 + CD151), Mean Fluorescence Intensity",PMA (CD14 + CD151); [3],104 ± 16 MFI
same,"PMA (CD14 + CD151), Mean Fluorescence Intensity","PMA (CD14 + CD151); E5555 20 ng/ml, Patients (ASA)",114 ± 18 MFI
same,"PMA (CD14 + CD151), Mean Fluorescence Intensity","PMA (CD14 + CD151); E5555 20 ng/ml, Volunteers",130 ± 16 MFI
same,"PMA (CD14 + CD151), Mean Fluorescence Intensity",PMA (CD14 + CD151); [4],100 ± 27 MFI
same,"PMA (CD14 + CD151), Mean Fluorescence Intensity","PMA (CD14 + CD151); E5555 50 ng/ml, Patients (ASA)",114 ± 19 MFI
same,"PMA (CD14 + CD151), Mean Fluorescence Intensity","PMA (CD14 + CD151); E5555 50 ng/ml, Volunteers",128 ± 18 MFI
same,"PMA (CD14 + CD151), Mean Fluorescence Intensity",PMA (CD14 + CD151); [5],105 ± 21 MFI
same,"PMA (CD14 + CD151), Mean Fluorescence Intensity",PMA (CD14 + CD151); [6],107 ± 20 MFI
same,"PMA (CD14 + CD151), Mean Fluorescence Intensity","PMA (CD14 + CD151); E5555 100 ng/ml, Volunteers",124 ± 23 MFI
same,"GP37 (CD165), Mean Fluorescence Intensity",GP37 (CD165); [3],25 ± 11 MFI
same,"GP37 (CD165), Mean Fluorescence Intensity","GP37 (CD165); E5555 20 ng/ml, Patients (ASA)",30 ± 7 MFI
same,"GP37 (CD165), Mean Fluorescence Intensity","GP37 (CD165); E5555 20 ng/ml, Volunteers",27 ± 8 MFI
same,"GP37 (CD165), Mean Fluorescence Intensity",GP37 (CD165); [4],28 ± 10 MFI
same,"GP37 (CD165), Mean Fluorescence Intensity","GP37 (CD165); E5555 50 ng/ml, Patients (ASA)",27 ± 12 MFI
same,"GP37 (CD165), Mean Fluorescence Intensity","GP37 (CD165); E5555 50 ng/ml, Volunteers",28 ± 7 MFI
same,"GP37 (CD165), Mean Fluorescence Intensity",GP37 (CD165); [5],25 ± 12 MFI
same,"GP37 (CD165), Mean Fluorescence Intensity",GP37 (CD165); [6],28 ± 11 MFI
same,"GP37 (CD165), Mean Fluorescence Intensity","GP37 (CD165); E5555 100 ng/ml, Volunteers",26 ± 6 MFI
same,"thrombospondin receptor expression, effect in words",[1]; [2],significant reduction
same,"Thrombospondin-Receptor (CD36), Mean Fluorescence Intensity",[1]; Patients (ASA + C),6.8 ± 1.9 MFI
same,"Thrombospondin-Receptor (CD36), Mean Fluorescence Intensity",[1]; Patients (ASA),7.2 ± 0.5 MFI

# From patent US20100056519A1, “COMPOSITION AND METHOD FOR REDUCING PLATELET ACTIVATION AND FOR THE TREATMENT OF THROMBOTIC EVENTS” (priority 2008, published 2010)
